“Also recorded” adds a separate entry of the source.
Columns and labels:
Jurkat cells [1] = test: FACS analysis of DDC uptake by Jurkat cells induced to undergo apoptosis by anti-Fas antibody (PI co-staining); type: cell-based, human
Procedure: FIG. 3: Cultured Jurkat cells (A) were induced to undergo apoptosis by anti-Fas antibody (0.1 μg/ml) for three hours. Subsequently, both control cells (A and C) and apoptotic cells (B and D) were then incubated with 50 μM of DDC in the presence (C and D) and absence (A and B) of 1 μM of rottlerin, an inhibitor of PKCδ. Prior to FACS analysis, cells were also co-stained with propidium iodide (PI), a marker of membrane disintegration during late phases of cell death. In the shown dot plot, the left lower quadrant represents the healthy, non-stained fraction of cells. The right lower quadrant represents the newly formed population of cells in the early stages of apoptosis. These cells are PLS-activated cells, yet still maintaining membrane integrity and thus excluding PI. Cells binding both DDC and PI, i.e., cells in the late stages of apoptosis are represented in the right upper quadrant. The induction of apoptosis was associated with the emergence of a marked, distinct population of cells in the early stages of the apoptotic process, selectively binding DDC and occupying the right lower quadrant of the plot. […] UV axis denotes fluorescence intensity of DDC; FL2 axis denotes fluorescence intensity of PI.
FIG. 4: Jurkat cells were induced to undergo apoptosis by treatment with anti-Fas Ab (0.1 μg/ml) for three hours. Subsequently, cells were co-incubated with 50 μM of DDC and PI, in the presence of 1 mM of CaCl2, or under conditions of calcium deprivation (i.e., co-administration of the calcium chelators BAPTA and EGTA). Binding of DDC and PI was evaluated by FACS.
FIG. 4A: A and C: control cells; B and D: apoptotic cells; A and B: with Ca^2+; C and D: deprivation of Ca^2+. The lower left quadrant in each dot plot represents the healthy non-stained fraction of cells. The lower right quadrant represents the newly formed population of cells in the early stages of apoptosis, characterized by activation of PLS, but still maintaining membrane integrity. […] However, DDC binding to the cells in early apoptosis was markedly lost upon inhibition of PLS by calcium deprivation (B versus D).
Cultured Jurkat cells were grown as described in Example 1, and apoptosis was then triggered by treatment with anti-Fas Ab (0.1 μg/ml) for three hours, thus inducing […] activation in these cells.
In order to inhibit PLS activity in the apoptotic cells, rottlerin was used (Calbiochem, Germany). […] Subsequent to induction of apoptosis, cells were incubated for 40 minutes with rottlerin, at a concentration of 1 μM, were then subjected to treatment with DDC at a concentration of […] and immediately taken for FACS analysis (FIG. 3).
Inhibition of PLS activity in the apoptotic cells was also achieved by reduction of ambient Ca^2+ levels. Following induction of apoptosis, both control and apoptotic cells (1×10^7 cells) were subjected to Ca^2+-deprivation, by co-treatment with BAPTA (20 μM) and EGTA (1 mM) for 30 minutes. Cells were then treated with DDC (250 μM) and propidium iodide (PI). Binding of DDC to these Ca^2+-deprived cells and to control, Ca^2+-treated (1 mM) cells was analyzed by FACS, and the dot plot is shown in FIG. 4A. The lower left quadrant in each dot plot represents the healthy fraction of cells. The lower right quadrant represents the newly-formed population of cells in the early stages of apoptosis, still maintaining membrane integrity but characterized by activation of PLS. As shown, these cells manifest DDC binding while excluding PI. The upper right quadrant represents cells in the late stages of apoptosis, characterized by disintegration of the plasma membrane, thus unselectively permeable to compounds including PI, that is normally excluded from healthy cells.
Induction of apoptosis is a major pathway for the activation of PLS. […] For this purpose, apoptosis was triggered in cultured Jurkat cells by treatment with anti-Fas antibody. […]

Jurkat cells [2] = test: as above; type: cell-based, human; remark: listed apart in the source

**Q.** Which “Binding of DDC to cells in the late stages of apoptosis upon calcium deprivation” value (Jurkat cells [1]; PI-permeable cells, BAPTA + EGTA) does the source give for `CN(C)c1cccc2c(S(=O)(=O)NC(CSSCC(NS(=O)(=O)c3cccc4c(N(C)C)cccc34)C(=O)O)C(=O)O)cccc12` (stereo not shown) [DDC] here?
**A.** The value was “no effect of PLS inhibition; also recorded: did not affect binding of DDC”.

**Q.** And the “Cells in the early stages of apoptosis binding DDC (right lower quadrant)” value (Jurkat cells [1]; apoptotic cells (anti-Fas 0.1 μg/ml 3 h), absence of rottlerin)?
**A.** The value was 46%.

**Q.** And the “Uptake of DDC by cells in the early stages of apoptosis” value (Jurkat cells [1]; apoptotic cells (anti-Fas), with Ca2+ 1 mM)?
**A.** The value was 38.4%.

**Q.** What about the “Uptake of DDC by cells in the early stages of apoptosis” value (Jurkat cells [1]; apoptotic cells, Ca2+-deprivation: BAPTA 20 μM + EGTA 1 mM, 30 min) of the same molecule?
**A.** The value was 8.89%.

**Q.** And the “Cells in the early stages of apoptosis binding DDC (right lower quadrant)” value (Jurkat cells [1]; apoptotic cells, rottlerin 1 μM (PKCδ inhibitor), 40 min)?
**A.** The value was 7.9%.

**Q.** What about the “Uptake of DDC (early-apoptosis quadrant)” value (Jurkat cells [1]; control cells, with Ca2+ 1 mM) of the same molecule?
**A.** The value was 4.11%.

**Q.** What about the “DDC binding to cells in the late stages of apoptosis in response to rottlerin” value (Jurkat cells [1]; right upper quadrant (DDC and PI positive), rottlerin 1 μM) of the same molecule?
**A.** The value was “did not manifest alterations in DDC binding”.

**Q.** And the “DDC binding by cells in early apoptosis with pan-caspase inhibitor” value (Jurkat cells [2]; anti-Fas 3 h + Z-VAD-fmk 50 μM, DDC 50 μM 5 min)?
**A.** Its value is “abolished this DDC binding”.

**Q.** What about the “DDC binding by cells in early apoptosis (peak B)” value (Jurkat cells [2]; anti-Fas 3 h without Z-VAD-fmk, DDC 50 μM 5 min) of the same molecule?
**A.** The value was “marked DDC binding”.

**Q.** What about the “DDC binding to cells in the late stages of apoptosis (peak C) with pan-caspase inhibitor” value (Jurkat cells [2]; anti-Fas + Z-VAD-fmk 50 μM) of the same molecule?
**A.** The value was “no significant alterations”.

Source: patent publication US20040141912A1, “Method for targeting chemical compounds to cells and pharmaceutical compositions used therein” (priority 2001, published 2004)
